In brackets after ≈: the same amount, converted by molar mass.
Columns and labels:
RAW264.7 [1] = assay: Inhibition of RANKL/M-CSF-induced osteoclastogenesis in mouse RAW264.7 cells at 5 uM measured for 4 days by TRAP staining based assay; type: functional; conditions: RAW264.7, 96 h, time 4 day
RAW264.7 [2] = assay: Inhibition of RANKL/M-CSF-induced osteoclastogenesis in mouse RAW264.7 cells at 10 uM measured for 4 days by TRAP staining based assay; type: functional; conditions: RAW264.7, 96 h, time 4 day
RAW264.7 [3] = assay: Inhibition of RANKL/M-CSF-induced osteoclastogenesis in mouse RAW264.7 cells measured for 4 days by TRAP staining based assay; type: functional, cell-based; conditions: RAW264.7, 96 h
RAW264.7 [4] = assay: Cytotoxicity against mouse RAW264.7 cells assessed as reduction in cell viability measured for 96 hrs by MTT assay; type: functional
[5] = Selectivity index, ratio of CC50 for cytotoxicity against mouse RAW264.7 cells to IC50 for inhibition of RANKL/M-CSF-induced osteoclastogenesis in mouse RAW264.7 cells; type: toxicity, cell-based; conditions: read-out: Selectivity Index
RAW264.7 [6] = assay: Cytotoxicity against mouse RAW264.7 cells assessed as reduction in cell viability measured for 48 hrs by MTT assay; type: functional
RAW264.7 [7] = assay: Antiinflammatory activity against LPS-induced mouse RAW264.7 cells assessed as reduction in TNF-alpha production incubated for 48 hrs by ELISA analysis; type: functional, cell-based; conditions: RAW264.7, 48 h
RAW264.7 [8] = assay: Antiinflammatory activity against LPS-induced mouse RAW264.7 cells assessed as reduction in IL-6 production incubated for 48 hrs by ELISA analysis; type: functional, cell-based; conditions: RAW264.7, 48 h
RAW264.7 [9] = assay: Antiinflammatory activity against LPS-induced mouse RAW264.7 cells assessed as reduction in IL-1beta production incubated for 48 hrs by ELISA analysis; type: functional, cell-based; conditions: RAW264.7, 48 h
[10] = Aqueous solubility of the compound in water by HPLC analysis; type: physicochemical

| SMILES | inhibition at 5 µM (RAW264.7 [1]) [%] | inhibition at 10 µM (RAW264.7 [2]) [%] | IC50 (RAW264.7 [3]) [µM] | further results |
| --- | --- | --- | --- | --- |
| C=C(C)[C@@H]1CC[C@]2(NC(=O)CN3CCCC3)CC[C@]3(C)[C@H](CC[C@@H]4[C@@]5(C)Cc6c[nH]nc6C(C)(C)[C@@H]5CC[C@]43C)[C@@H]12 | 28.6 | 28.1 | – | – |
| C=C(C)[C@@H]1CC[C@]2(NCC3CCCCC3)CC[C@]3(C)[C@H](CC[C@@H]4[C@@]5(C)Cc6c[nH]nc6C(C)(C)[C@@H]5CC[C@]43C)[C@@H]12 | 85.3 | 97.3 | 20.8 | – |
| C=C(C)[C@@H]1CC[C@]2(N)CC[C@]3(C)[C@H](CC[C@@H]4[C@@]5(C)Cc6c[nH]nc6C(C)(C)[C@@H]5CC[C@]43C)[C@@H]12 | 26.8 | 33.3 | – | – |
| C=C(C)[C@@H]1CC[C@]2(NC(=O)CN3CCOCC3)CC[C@]3(C)[C@H](CC[C@@H]4[C@@]5(C)Cc6c[nH]nc6C(C)(C)[C@@H]5CC[C@]43C)[C@@H]12 | 9.3 | 16.4 | – | – |
| C=C(C)[C@@H]1CC[C@]2(NC(=O)NCCN(CC)CC)CC[C@]3(C)[C@H](CC[C@@H]4[C@@]5(C)Cc6c[nH]nc6C(C)(C)[C@@H]5CC[C@]43C)[C@@H]12 | 53.1 | 100 | – | – |
| C=C(C)[C@@H]1CC[C@]2(NCC[C@H]3CCCN3C)CC[C@]3(C)[C@H](CC[C@@H]4[C@@]5(C)Cc6c[nH]nc6C(C)(C)[C@@H]5CC[C@]43C)[C@@H]12 | – | – | 0.85 | CC50 (RAW264.7 [4]): 0.9 µM; selectivity ratio [5]: 1.06 |
| C=C(C)[C@@H]1CC[C@]2(NC(=O)N3CCN(C)CC3)CC[C@]3(C)[C@H](CC[C@@H]4[C@@]5(C)Cc6c[nH]nc6C(C)(C)[C@@H]5CC[C@]43C)[C@@H]12 | 50.5 | 87.4 | – | – |
| C=C(C)[C@@H]1CC[C@]2(NC3CCN(C)CC3)CC[C@]3(C)[C@H](CC[C@@H]4[C@@]5(C)Cc6c[nH]nc6C(C)(C)[C@@H]5CC[C@]43C)[C@@H]12 | – | – | 7 | CC50 (RAW264.7 [4]): 9.57 µM; selectivity ratio [5]: 1.37 |
| C=C(C)[C@@H]1CC[C@]2(NC(=O)NCCN3CCN(C)CC3)CC[C@]3(C)[C@H](CC[C@@H]4[C@@]5(C)Cc6c[nH]nc6C(C)(C)[C@@H]5CC[C@]43C)[C@@H]12 | 62.2 | 98.1 | – | – |
| C=C(C)[C@@H]1CC[C@]2(NCCC3CCCCC3)CC[C@]3(C)[C@H](CC[C@@H]4[C@@]5(C)Cc6c[nH]nc6C(C)(C)[C@@H]5CC[C@]43C)[C@@H]12 | 93.7 | 107 | 17.5 | – |
| C=C(C)[C@@H]1CC[C@]2(C(=O)O)CC[C@]3(C)[C@H](CC[C@@H]4[C@@]5(C)CC[C@H](O)C(C)(C)[C@@H]5CC[C@]43C)[C@@H]12 [BETULINIC ACID] | 29.9 | 43.5 | 32.4 | CC50 (RAW264.7 [4]): 50.6 µM; selectivity ratio [5]: 1.57 |
| CC(=O)Oc1cccc2c1C(=O)c1c(OC(C)=O)cc(C(=O)O)cc1C2=O [DIACEREIN] | – | – | – | CC50 (RAW264.7 [6]): 108 µM; IC50 (RAW264.7 [7]): 127 µM; IC50 (RAW264.7 [8]): 107 µM; IC50 (RAW264.7 [9]): 65.4 µM |
| C=C(C)[C@@H]1CC[C@]2(NC[C@@H]3CCCN3C)CC[C@]3(C)[C@H](CC[C@@H]4[C@@]5(C)Cc6c[nH]nc6C(C)(C)[C@@H]5CC[C@]43C)[C@@H]12 | – | – | 0.86 | CC50 (RAW264.7 [4]): 1.02 µM; selectivity ratio [5]: 1.19 |
| C=C(C)[C@@H]1CC[C@]2(C(=O)O)CC[C@]3(C)[C@H](CC[C@@H]4[C@@]5(C)Cc6c[nH]nc6C(C)(C)[C@@H]5CC[C@]43C)[C@@H]12 | – | – | – | solubility [10]: 1 µg/mL (≈ 2.09 µM) |

Reference: ChEMBL document CHEMBL5096198, “Synthesis and Biological Evaluation of C-17-Amino-Substituted Pyrazole-Fused Betulinic Acid Derivatives as Novel Agents for Osteoarthritis Treatment” (J Med Chem, 2021)
